Series [1] concerns Lewis rats. Put plainly: Intraperitoneal glucose tolerance test (IPGTT), blood glucose. Conditions: for hypoglycemic activity in IPGTT (improvement of glucose tolerance): 2 mg/kg i.v., Lewis rats. The format is in vivo, rat. As to the method: Rats were handled daily to minimize nonspecific stress for more than 7 days before the experiments began. In most experiments, it was necessary to measure blood glucose in fasting animals. For these groups, food was removed at the beginning of the light cycle, 6 hours before glucose levels were tested.
Sixty minutes prior to intraperitoneal glucose tolerance testing (IPGTT), anesthesia of male Lewis rats was induced with isoflurane (3-4% in oxygen) and maintained with 1-2% isoflurane in oxygen.
Anaesthetized rats were administered TBZ at the indicated dose by intravenous (i.v.) injection using the penile vein. […] Control rats received injections of vehicle alone (10% DMSO in Saline).
(§1) Animals were fully recovered for at least 30 minutes before receiving IPGTT. In specified experiments, L-DOPA was injected interperitoneal (I.P.) at the specified dose at the initiation of IPGTT. Abnormal glucose tolerance was induced by a single I.P. injection of streptozotocin (STZ) (Sigma Aldrich, St. Louis, Mo.) (50 mg/kg) to animals that had been fasted 4 hours to enhance the efficacy of STZ.
(§2) Blood samples were collected between 12:00 noon and 2:00 p.m. from a superficial blood vessel in the tails of the rats following 6 hours of fasting. The fasting blood glucose (BG) levels of the rats were measured using an Accu-Check blood glucose monitoring system (Roche Diagnostics, Sommerville, N.J.). IPGTT was performed in 6-hour fasting anaesthetized animals as previously described (Weksler-Zangen, et al. 2001). Briefly, after baseline BG measurements, animals received an I.P. injection of 2 grams of glucose/kg body weight. To minimize stress during the procedure, rats were handled by the same operator during acclimatization and later during weighing and IPGTT. Blood samples (50 μl or 150 μl) were collected at baseline and then again 15, 30, 60, 90, and 120 minutes following I.P. injection of glucose. Blood glucose concentrations were measured immediately on these samples and the remainder processed. Plasma was immediately separated by centrifugation at 3,000×g for 15 minutes and then stored at −80° C. until analysis.
Insulin and glucagon concentration measurements in rat plasma were performed by ELISA as per the manufacturer's instructions using kits from Linco Research Inc. (St. Charles, Mich.) and Alpco Diagnostics (Salem, N.H.), respectively. To validate the test, saline injections were performed by the same method. […] The area under the insulin, glucagon and IPGTT glucose concentration×time curve (AUC IPGTT) was calculated by the trapezoidal rule.

A further series concerns purified rat islets. In words: Static glucose stimulated insulin secretion in purified islets. The format is cell-based. To be noted: 100 nM DTBZ. As for the experimental part: Rat pancreas digestion, islet isolations, and static insulin secretion assays were performed as previously described (Niswender et al. 2005; Sweet, et al. 2004; Sweet and Gilbert 2006). Purified islets were cultured in RPMI 1640 culture media with 10% fetal bovine serum at 37° C. in humidified air (5% CO2) for 18 to 24 hours. Assessment of insulin secretion in static media was carried out as follows. Islets were handpicked twice into a Petri dishes containing Krebs-Ringer bicarbonate (KRB) buffer (with 3 mM glucose and 0.1% BSA) and pre-incubated for 60 minutes (37° C. and 5% CO2). Subsequently, batches of 100 islets (in quadruplicate) were transferred into 96-well plates containing 200 μl of KRB with either 3 or 20 mM glucose, with or without 100 nM DTBZ and incubated for 60 minutes. The supernatant was removed and the insulin was measured using ELISA (ALPCO, Windham, N.H.).

Series [2] deals with T1, VMAT2 (Rattus norvegicus, UniProt Q01827).
T1 construct: endogenous in cells; host or cells: rat INS 832/13 insulinoma cells
T1 sequence (Q01827 whole entry): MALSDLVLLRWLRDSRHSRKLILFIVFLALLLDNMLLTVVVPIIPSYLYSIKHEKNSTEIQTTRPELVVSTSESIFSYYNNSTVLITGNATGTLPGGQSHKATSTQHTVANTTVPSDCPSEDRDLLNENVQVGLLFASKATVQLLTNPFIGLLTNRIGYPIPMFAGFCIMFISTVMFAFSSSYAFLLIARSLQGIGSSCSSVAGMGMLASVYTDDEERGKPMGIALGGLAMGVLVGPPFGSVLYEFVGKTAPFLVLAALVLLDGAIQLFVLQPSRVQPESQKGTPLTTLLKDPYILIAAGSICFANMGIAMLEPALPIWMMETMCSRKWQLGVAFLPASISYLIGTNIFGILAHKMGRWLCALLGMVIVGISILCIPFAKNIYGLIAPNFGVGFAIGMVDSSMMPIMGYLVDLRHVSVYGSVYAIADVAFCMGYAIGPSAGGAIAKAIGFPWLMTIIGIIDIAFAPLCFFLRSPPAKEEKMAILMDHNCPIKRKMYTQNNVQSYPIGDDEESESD
Put plainly: Fake Fluorescent Neurotransmitter (FFN) uptake high throughput assay in INS 832/13 cells. The format is cell-based. Conditions: one hour preincubation. From the text: A high throughput (HTP) assay was developed to screen for compounds that interact with, e.g., bind to, VMAT2. The HTP exploits a class of compounds called Fake Fluorescent Neurotransmitters (FFN) that share the following characteristics a) low molecular weight and sufficiently hydrophilic to be water soluble; b) in aqueous buffer (pH 7), the excitation maxima is around 380-406 nm and the emission maxima is around 501 nm; and c) similar Kd for VMAT2 as dopamine. To validate the use of these compounds in beta cell lines (positive for VMAT2) the following set of experiments were performed.
The rat INS 832/13 cell line was selected because it secretes insulin in response to glucose concentrations in the physiological range and can be shown to contain VMAT2 by PCR. […] INS cells were grown on cover slips in normal media, then pretreated with and without DTBZ in low glucose media for one hour and then loaded with FFN (GH206). The distribution of fluorescent dye was then examined under a fluorescent microscope. The FFN distributes itself intracellularly in a punctate pattern similar, if not identical, to insulin containing granules of this cell line (data not shown). […] For better quantitation of the fluorescent signal, the cells were grown in […] and the same experiment substantially repeated. Briefly, cells were grown to confluence in complete high glucose media, then incubated for one hour in low glucose media. DTBZ was then added to the wells for one hour, followed with a second one hour incubation with FFN. Wells were then washed and the fluorescent signal (380 exc, 512 emm) measured in a multiwell fluorometer (Synergy HT Multi-Mode Microplate Reader).

In the next series the target is T2, DPP-IV (Homo sapiens, UniProt P27487).
T2 construct: purchased BPS Bioscience, Inc. (San Diego, Calif.)
T2 sequence (P27487 whole entry, species assumed): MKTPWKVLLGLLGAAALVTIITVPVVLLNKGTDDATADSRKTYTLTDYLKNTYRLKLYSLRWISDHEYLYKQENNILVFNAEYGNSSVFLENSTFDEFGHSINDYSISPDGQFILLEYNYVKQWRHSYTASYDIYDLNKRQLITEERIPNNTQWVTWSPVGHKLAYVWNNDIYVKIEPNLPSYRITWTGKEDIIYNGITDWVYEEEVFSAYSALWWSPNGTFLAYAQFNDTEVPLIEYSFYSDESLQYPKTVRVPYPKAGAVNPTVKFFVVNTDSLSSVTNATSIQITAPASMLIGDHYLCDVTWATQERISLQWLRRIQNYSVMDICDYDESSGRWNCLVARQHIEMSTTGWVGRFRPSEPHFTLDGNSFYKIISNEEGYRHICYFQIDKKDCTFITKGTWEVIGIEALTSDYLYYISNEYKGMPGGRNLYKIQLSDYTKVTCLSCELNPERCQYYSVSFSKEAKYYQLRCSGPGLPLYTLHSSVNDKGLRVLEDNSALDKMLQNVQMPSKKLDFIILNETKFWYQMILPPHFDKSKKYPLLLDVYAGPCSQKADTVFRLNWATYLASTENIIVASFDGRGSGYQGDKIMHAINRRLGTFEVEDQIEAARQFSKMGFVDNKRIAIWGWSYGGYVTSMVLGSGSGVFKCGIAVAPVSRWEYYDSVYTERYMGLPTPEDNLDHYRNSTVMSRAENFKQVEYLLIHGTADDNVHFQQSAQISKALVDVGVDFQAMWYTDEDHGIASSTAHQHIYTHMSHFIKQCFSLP
In words: DPP profiling service (BPS Bioscience), in vitro. The format is biochemical. To be noted: concentrations up to 10 μM. As for the experimental part:
The effect of DTBZ on DDP-IV was determined using the DPP profiling service from BPS Bioscience, Inc. (San Diego, Calif.).

A further series has as its target T3, VMAT1 (Homo sapiens, UniProt P54219).
T3 sequence (P54219 1-525): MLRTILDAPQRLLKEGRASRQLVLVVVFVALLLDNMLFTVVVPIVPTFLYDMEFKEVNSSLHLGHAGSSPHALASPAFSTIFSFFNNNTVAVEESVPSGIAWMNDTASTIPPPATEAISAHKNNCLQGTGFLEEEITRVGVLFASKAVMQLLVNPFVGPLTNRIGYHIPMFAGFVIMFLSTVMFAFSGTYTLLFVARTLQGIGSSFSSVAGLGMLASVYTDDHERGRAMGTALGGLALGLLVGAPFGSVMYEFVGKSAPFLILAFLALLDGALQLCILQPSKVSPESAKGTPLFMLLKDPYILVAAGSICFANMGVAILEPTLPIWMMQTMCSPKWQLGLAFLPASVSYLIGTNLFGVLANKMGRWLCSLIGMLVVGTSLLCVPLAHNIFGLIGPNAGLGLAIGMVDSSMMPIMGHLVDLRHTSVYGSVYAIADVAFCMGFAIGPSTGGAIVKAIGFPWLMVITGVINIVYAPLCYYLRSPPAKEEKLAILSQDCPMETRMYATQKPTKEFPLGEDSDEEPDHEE
Conditions: cited from earlier work.

The next series relates to STZ treated rats. In words: IPGTT and insulin in streptozotocin (STZ) treated rats. To be noted: TBZ 1.5 mg/Kg. The format is in vivo, rat. As to the method:
as §1
STZ solution was prepared fresh by dissolving it in 0.1 M citrate buffer (pH 5.5) and terminally sterile filtered. Control Lewis age and weight matched rats received a 0.5 ml/kg citrate vehicle alone via intraperitoneal injection. […]
Blood samples were collected between 12:00 noon and 2:00 p.m. from a superficial blood vessel in the tails of the rats following 6 hours of fasting. The fasting blood glucose (BG) levels of the rats were measured using an Accu-Check blood glucose monitoring system (Roche Diagnostics, Sommerville, N.J.). […] Blood glucose concentrations were measured immediately on these samples and the remainder processed. […]
Insulin and glucagon concentration measurements in rat plasma were performed by ELISA as per the manufacturer's instructions using kits from Linco Research Inc. (St. Charles, Mich.) and Alpco Diagnostics (Salem, N.H.), respectively. […] The area under the insulin, glucagon and IPGTT glucose concentration×time curve (AUC IPGTT) was calculated by the trapezoidal rule.

In the next series the test system is rats. Conditions: cited from earlier work.
For series [3], the system named is Lewis rats. Put plainly: Dopamine content of brain and pancreas tissue by ELISA after TBZ. The format is in vivo, rat. Conditions: 1.5 mg/Kg i.v., one hour after injection. As to the method:
Euthanasia was performed by exsanguination of the anesthetized animal. Brain and pancreas were harvested as quickly as possible and frozen at −80° C. until use. […] The tissue extract was centrifuged at 10,000×g at 4° C. to remove debris and the total protein was estimated by reading the absorbance at 280 nm.

For series [4] the following is noted: rats; cited from earlier work.
Series [5] concerns the target VMAT2 (Homo sapiens, UniProt Q05940). Conditions: cited from earlier work.
Series [6] deals with Lewis rats. Put plainly: Plasma insulin and glucagon during IPGTT. The format is in vivo, rat. As to the method: as §2, with “The” for “Blood samples were collected between 12:00 noon and 2:00 p.m. from a superficial blood vessel in the tails of the rats following 6 hours of fasting. The”, “([…],” for “(Weksler-Zangen,”, “-80°” for “−80°”, “analysis. Insulin and glucagon concentration measurements in rat plasma were performed by ELISA as per the manufacturer's instructions using kits from Linco Research Inc. (St. Charles, Mich.) and Alpco Diagnostics (Salem, N.H.), respectively. To validate the test, saline injections were performed by the same method. […] The area under the insulin, glucagon and IPGTT glucose concentration×time curve (AUC IPGTT) was calculated by the trapezoidal rule.” for “analysis.”

The structures appear in SMILES notation.

VMAT2 (Homo sapiens, UniProt Q05940), sequence (Q05940 whole entry): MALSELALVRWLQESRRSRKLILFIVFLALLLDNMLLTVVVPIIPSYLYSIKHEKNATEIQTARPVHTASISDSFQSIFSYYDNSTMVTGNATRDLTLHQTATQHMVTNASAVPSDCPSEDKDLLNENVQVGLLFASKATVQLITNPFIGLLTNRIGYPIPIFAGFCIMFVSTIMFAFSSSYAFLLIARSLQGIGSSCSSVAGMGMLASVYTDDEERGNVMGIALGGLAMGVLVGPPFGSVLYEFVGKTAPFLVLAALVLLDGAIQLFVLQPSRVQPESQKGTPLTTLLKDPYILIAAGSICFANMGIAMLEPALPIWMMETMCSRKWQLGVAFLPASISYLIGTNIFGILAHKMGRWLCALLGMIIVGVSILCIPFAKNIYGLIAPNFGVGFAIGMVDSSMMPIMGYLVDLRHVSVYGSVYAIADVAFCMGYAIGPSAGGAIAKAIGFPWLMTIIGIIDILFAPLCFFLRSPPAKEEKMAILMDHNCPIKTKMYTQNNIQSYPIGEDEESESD

Turning to `COc1ccc(C2CC(O)C(CC(C)C)CN2)cc1OC` (racemic) [compound 1], the “hypoglycemic activity in IPGTT (improvement of glucose tolerance)” value with Lewis rats [1] was “less potent than TBZ”.

On to `COc1cc2c(cc1OC)[C@H]1C[C@@H](O)[C@H](CC(C)C)CN1CC2` [DTBZ, dihydrotetrabenazine], for which, in the series with purified rat islets (high glucose (20 mM), 60 minutes), the “enhancement of glucose stimulated insulin secretion” value is “two to three fold”. For the same compound, in the series on purified rat islets (low glucose (3 mM)), the “increase in insulin secretion” value is recorded as “not statistically significant”. Also, the “block of FFN uptake/transport” value at VMAT2 [2] is recorded as “able to block uptake of FFN”. The “effect on DPP-IV” value on DPP-IV is on record as “no effect”.

As to `N[C@@H](Cc1ccc(O)c(O)c1)C(=O)O` [L-DOPA, L-3,4-dihydroxyphenylalanine], in the series with Lewis rats [1] (L-DOPA 6.0 mg/Kg I.P., one hour after TBZ, concurrent with glucose), the “effect on TBZ-lowered AUC IPGTT” value is “reverse the effects of TBZ”.

With `COc1cc2c(cc1OC)C1CC(=O)C(CC(C)C)CN1CC2` (stereo not drawn) [TBZ, tetrabenazine], on VMAT1, the “reduced affinity towards VMAT1 versus VMAT2” value is reported as “more than 10,000 fold”. Also, the “AUC IPGTT” value in the series on STZ treated rats (STZ treated rats) is reported as “decreased”. Further, the “increase of AUC insulin” value in the series with STZ treated rats (STZ treated rats which maintained glucose dependant insulin secretion) is on record as 50%-80%. Also, the “reduction of glucose excursion (AUC IPGTT)” value in the series with Lewis rats [1] (2.25 μg/gm body weight i.v., older male Lewis rats >11 weeks) was “approximately 35%”. Besides, the “decrease of AUC IPGTT” value with Lewis rats [1] (2 mg/kg i.v. 30 minutes before glucose 2 g/kg I.P.) was 26%. The “baseline fasting glucose concentration versus control animals” value in the series on Lewis rats [1] (about 1 hour after TBZ, before glucose challenge) was “no reproducible differences”. Further, the “AUC IPGTT” value in the series with Lewis rats [1] (chronic administration, approximately 0.1 mg/Kg body weight for five days) was “suppressed the AUC IPGTT in a fashion similar to the single high dose”. For the same compound, the “AUC IPGTT” value in the series on Lewis rats [1] (doses higher than 5.0 mg/Kg) is “increasingly variable, often surpassing that of control levels”. Moreover, in the series on Lewis rats [1] (doses lower than 0.3 mg/Kg), the “glucose tolerance enhancing effect (AUC IPGTT)” value is “undetectable”. Moreover, in the series with rats, the “reduction of dopamine levels in the brain” value is given as 40%, the “reduction of norepinephrine levels in the brain” value is 41% and the “reduction of serotonin levels in the brain” value is reported as 44%. Moreover, in the series on Lewis rats [3], the “dopamine content of brain” value is recorded as “significantly reduced”. In addition, in series [4], the “plasma elimination half life, t1/2” value is 2 h. For the same compound, on VMAT2 [5], the dissociation constant result is reported as “nanomolar range”. Moreover, in the series with Lewis rats [6] (i.v. TBZ and glucose challenge), the AUC plasma glucagon entry is listed as “lower relative to controls”.

`COC1=CC(=O)N2CCc3cc(OC)c(OC)cc3C2C1` (stereo not drawn) [compound 15]: in the series with Lewis rats [1], the “hypoglycemic activity in IPGTT (improvement of glucose tolerance)” value was “active but less potent”.

For `NCCc1ccc(O)c(O)c1` [dopamine], the “effect on insulin enhancement by TBZ” value in the series on Lewis rats [6] (dopamine i.v. at the same time as glucose) is “partially blocked the insulin enhancing effects of TBZ”.

The record behind these values is US9012471B2, “Glucose metabolism modulating compounds” (The Trustees of Columbia University in the City of New York, priority 2008, dated 2015).
